Reference: patent publication US8664213B2, “Spiro bicyclic diamine derivatives as HIV attachment inhibitors” (priority 2011, dated 2014)
Where two headings read alike, the source gives them in different places.

Test system: HIV-1 LAI
Assay: Single-round infectious luciferase reporter virus (HIV-1 LAI envelope) infection of MT2 cells
Type: cell-based
Details: Human immunodeficiency virus 1, MT2, 72 h
Excerpt: • Virus Production— • Human embryonic Kidney cell line, 293T (HEK 293T), was propagated in Dulbecco's Modified Eagle Medium (Invitrogen, Carlsbad, Calif.) containing 10% fetal Bovine serum (FBS, Sigma, St. Louis, Mo.). The human T-cell leukemia cell MT2 (AIDS Research and Reference Reagent Program, Cat. 237) was propagated in RPMI 1640 (Invitrogen, Carlsbad, Calif.) containing 10% fetal bovine serum (FBS, Hyclone, Logan, Utah) • Virus Infection— • Single-round infectious reporter virus was produced by co-transfecting HEK 293T cells with plasmide expressing the HIV-1 LAI envelope along with a plasmid containing an HIV-1 LAI proviral cDNA with the envelope gene replaced by a firefly luciferase reporter gene (Chen et al, Ref 41). Transfections were performed using lipofectAMINE PLUS reagent as described by the manufacturer (Invitrogen, Carlsbad, Calif.).
• 1. MT2 cells were plated in black, 384 well plates at a cell density of 5×10^3 cells per well in 25 μl RPMI 1640 containing 10% FBS. • 2. Compound (diluted in dimethylsulfoxide and growth medium) was added to cells at 12.5 μl/well, so that the final assay concentration would be ≦50 nM. • 3. 12.5 μl of single-round infectious reporter virus in Dulbecco's Modified Eagle Medium was added to the plated cells and compound at an approximate multiplicity of infection (MOI) of 0.01, resulting in a final volume of 50 μl per well. • 4. Virus-infected cells were incubated at 37 degrees Celsius, in a CO2 incubator, and harvested 72 h after infection. • 5. Viral infection was monitored by measuring luciferase expression in the infected cells using a luciferase reporter gene assay kit (Steady-Glo, Promega, Madison, Wis.) as described by the manufacturer. Luciferase activity was then quantified by measuring luminescence using an EnVision Multilabel Plate Readers (PerkinElmer, Waltham, Mass.). • 6. The percent inhibition for each compound was calculated by quantifying the level of luciferase expression in cells infected in the presence of each compound as a percentage of that observed for cells infected in the absence of compound and subtracting such a determined value from 100. • 7. An EC50 provides a method for comparing the antiviral potency of the compounds of this disclosure. The effective concentration for fifty percent inhibition (EC50) was calculated with the Microsoft Excel Xlfit curve fitting software. For each compound, curves were generated from percent inhibition calculated at 10 different concentrations by using a four parameter logistic model (model 205). Table 1 is the key for the data in Table 2.

[1] = read-out: EC50 Group from Table 1

Structure (SMILES) | EC50 [µM] | EC50 [1] [µM]
O=C(C(=O)N1CCC2(CCN(c3nnnn3-c3ccccc3)C2)C1)c1c[nH]c2c(-n3ccnn3)ncc(F)c12 (centres unmarked) [Compound 1001, 1-(4-fluoro-7-(1H-1,2,3-triazol-1-yl)-1H-pyrrolo[2,3-c]pyridin-3-yl)-2-(7-(1-phenyl-1H-tetrazol-5-yl)-2,7-diazaspiro[4.4]nonan-2-yl)ethane-1,2-dione] | 0.00565 | < 0.5
COc1cnc(-n2cnc(C)n2)c2[nH]cc(C(=O)C(=O)N3CCC4(CCN(C(=O)c5ccccc5)C4)C3)c12 (centres unmarked) [Compound 2004] | – | > 0.5
COc1cnc(-n2cnc(C)n2)c2[nH]cc(C(=O)C(=O)N3CCC4(CCN(Cc5ccccc5)C4)C3)c12 (centres unmarked) [Compound 2002] | – | > 0.5
O=C(C(=O)N1CCC2(CCN(C(=O)c3ccccc3)C2)C1)c1c[nH]c2c(-n3ccnn3)ncc(F)c12 (centres unmarked) [Compound 2003] | – | > 0.5
COc1cnc(-n2cnc(C)n2)c2[nH]cc(C(=O)C(=O)N3CCC4(CCN(c5nnnn5-c5ccccc5)C4)C3)c12 (centres unmarked) [Compound 1002, 1-(4-methoxy-7-(3-methyl-1H-1,2,4-triazol-1-yl)-1H-pyrrolo[2,3-c]pyridin-3-yl)-2-(7-(1-phenyl-1H-tetrazol-5-yl)-2,7-diazaspiro[4.4]nonan-2-yl)ethane-1,2-dione] | – | < 0.5
COc1cnc(-n2cnc(C)n2)c2[nH]cc(C(=O)C(=O)N3CC4(C3)CN(c3nnnn3-c3ccccc3)C4)c12 [Compound 4001, 1-(4-methoxy-7-(3-methyl-1H-1,2,4-triazol-1-yl)-1H-pyrrolo[2,3-c]pyridin-3-yl)-2-(6-(1-phenyl-1H-tetrazol-5-yl)-2,6-diazaspiro[3.3]heptan-2-yl)ethane-1,2-dione] | 0.219 | < 0.5
